Assay results published in US20240269139A1, “COMPOUNDS FOR TARGETED PROTEIN DEGRADATION OF KINASES” (DANA-FARBER CANCER INSTITUTE, INC., priority 2020, published 2024).
Where two headings read alike, the source gives them in different places.

Key:
Type in all cases: cell-based
[1] = biological target: protein kinases (human kinome) (Homo sapiens, UniProt Q15131); conditions: for logFC: CDK10 (Q15131-1)
[2] = biological target: protein kinases (human kinome) (Homo sapiens, UniProt Q16659)
[3] = biological target: T1, protein kinases (human kinome) (Homo sapiens, UniProt P42680); conditions: TEC (P42680)
T1 sequence (P42680 1-631): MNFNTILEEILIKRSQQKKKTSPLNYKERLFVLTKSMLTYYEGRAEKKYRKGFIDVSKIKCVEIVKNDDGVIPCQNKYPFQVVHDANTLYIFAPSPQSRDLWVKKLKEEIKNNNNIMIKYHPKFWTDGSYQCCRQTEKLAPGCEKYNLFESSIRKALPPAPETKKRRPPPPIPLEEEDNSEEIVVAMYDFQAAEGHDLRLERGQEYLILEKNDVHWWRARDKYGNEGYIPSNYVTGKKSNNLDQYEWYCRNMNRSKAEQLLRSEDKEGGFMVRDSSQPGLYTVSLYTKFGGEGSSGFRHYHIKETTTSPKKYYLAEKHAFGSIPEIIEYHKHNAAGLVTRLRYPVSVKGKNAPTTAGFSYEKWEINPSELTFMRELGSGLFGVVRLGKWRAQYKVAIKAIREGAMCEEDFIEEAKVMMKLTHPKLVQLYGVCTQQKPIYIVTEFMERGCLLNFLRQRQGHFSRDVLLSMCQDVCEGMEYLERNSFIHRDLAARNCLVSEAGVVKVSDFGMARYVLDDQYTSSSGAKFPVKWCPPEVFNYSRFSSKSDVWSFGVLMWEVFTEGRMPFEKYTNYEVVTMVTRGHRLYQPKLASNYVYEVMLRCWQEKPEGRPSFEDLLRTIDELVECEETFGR

[4] = biological target: protein kinases (human kinome) (Homo sapiens, UniProt Q9BVS4); conditions: RIOK2 Q9BVS4
[5] = biological target: T2, protein kinases (human kinome) (Homo sapiens, UniProt P29320)
T2 sequence (P29320 21-983): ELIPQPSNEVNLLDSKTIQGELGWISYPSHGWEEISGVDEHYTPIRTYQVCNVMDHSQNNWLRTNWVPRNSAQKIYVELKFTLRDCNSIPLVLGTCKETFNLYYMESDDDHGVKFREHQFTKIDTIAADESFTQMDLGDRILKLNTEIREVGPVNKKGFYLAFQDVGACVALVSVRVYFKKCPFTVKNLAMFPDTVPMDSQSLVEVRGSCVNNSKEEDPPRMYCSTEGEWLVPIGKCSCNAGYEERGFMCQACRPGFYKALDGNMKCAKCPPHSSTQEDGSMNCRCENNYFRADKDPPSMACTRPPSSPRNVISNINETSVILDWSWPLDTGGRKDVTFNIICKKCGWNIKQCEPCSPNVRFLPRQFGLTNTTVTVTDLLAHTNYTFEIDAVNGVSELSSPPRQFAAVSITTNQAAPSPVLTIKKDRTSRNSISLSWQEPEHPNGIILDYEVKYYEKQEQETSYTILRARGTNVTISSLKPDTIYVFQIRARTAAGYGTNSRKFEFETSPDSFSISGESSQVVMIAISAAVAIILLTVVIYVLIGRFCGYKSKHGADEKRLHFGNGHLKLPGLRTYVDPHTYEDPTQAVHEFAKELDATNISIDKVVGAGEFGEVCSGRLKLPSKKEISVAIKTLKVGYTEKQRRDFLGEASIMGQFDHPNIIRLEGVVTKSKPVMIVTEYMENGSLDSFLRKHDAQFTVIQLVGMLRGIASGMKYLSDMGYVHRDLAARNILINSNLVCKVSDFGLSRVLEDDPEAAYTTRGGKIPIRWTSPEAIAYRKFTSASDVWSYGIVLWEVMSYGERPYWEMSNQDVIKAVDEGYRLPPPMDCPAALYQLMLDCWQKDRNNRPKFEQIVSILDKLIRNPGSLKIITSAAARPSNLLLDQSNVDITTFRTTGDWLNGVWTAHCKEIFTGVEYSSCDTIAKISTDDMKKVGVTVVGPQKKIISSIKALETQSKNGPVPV

[6] = experiment wp107, direction down
[7] = MAPK6 (Q16659), experiment wp131

protein kinases (human kinome) (Homo sapiens, UniProt Q9BVS4), sequence (Q9BVS4 whole entry): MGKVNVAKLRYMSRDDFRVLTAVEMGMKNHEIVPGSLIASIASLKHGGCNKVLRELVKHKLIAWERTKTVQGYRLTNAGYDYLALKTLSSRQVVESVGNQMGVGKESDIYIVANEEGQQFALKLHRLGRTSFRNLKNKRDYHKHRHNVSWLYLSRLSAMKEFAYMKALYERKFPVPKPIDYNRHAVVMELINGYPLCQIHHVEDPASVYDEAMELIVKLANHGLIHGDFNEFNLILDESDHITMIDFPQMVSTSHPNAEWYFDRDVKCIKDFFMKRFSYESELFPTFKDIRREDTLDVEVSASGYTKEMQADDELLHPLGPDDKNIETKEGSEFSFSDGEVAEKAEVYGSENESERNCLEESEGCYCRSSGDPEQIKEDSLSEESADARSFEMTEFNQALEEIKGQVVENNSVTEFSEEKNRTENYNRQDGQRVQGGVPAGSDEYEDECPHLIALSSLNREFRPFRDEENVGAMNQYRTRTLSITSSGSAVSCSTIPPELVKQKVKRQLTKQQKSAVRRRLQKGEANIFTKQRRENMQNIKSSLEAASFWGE
protein kinases (human kinome) (Homo sapiens, UniProt Q15131), sequence (Q15131 whole entry): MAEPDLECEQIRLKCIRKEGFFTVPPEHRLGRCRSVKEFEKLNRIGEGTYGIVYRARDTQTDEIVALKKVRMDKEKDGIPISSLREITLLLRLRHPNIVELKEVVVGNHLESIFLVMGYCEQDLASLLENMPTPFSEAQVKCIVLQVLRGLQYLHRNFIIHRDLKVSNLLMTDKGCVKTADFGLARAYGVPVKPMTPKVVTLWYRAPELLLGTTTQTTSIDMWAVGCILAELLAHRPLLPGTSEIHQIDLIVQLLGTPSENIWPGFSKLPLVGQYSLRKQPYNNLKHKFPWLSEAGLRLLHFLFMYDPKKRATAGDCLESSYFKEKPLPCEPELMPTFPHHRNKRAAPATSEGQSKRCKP
protein kinases (human kinome) (Homo sapiens, UniProt Q16659), sequence (Q16659 whole entry): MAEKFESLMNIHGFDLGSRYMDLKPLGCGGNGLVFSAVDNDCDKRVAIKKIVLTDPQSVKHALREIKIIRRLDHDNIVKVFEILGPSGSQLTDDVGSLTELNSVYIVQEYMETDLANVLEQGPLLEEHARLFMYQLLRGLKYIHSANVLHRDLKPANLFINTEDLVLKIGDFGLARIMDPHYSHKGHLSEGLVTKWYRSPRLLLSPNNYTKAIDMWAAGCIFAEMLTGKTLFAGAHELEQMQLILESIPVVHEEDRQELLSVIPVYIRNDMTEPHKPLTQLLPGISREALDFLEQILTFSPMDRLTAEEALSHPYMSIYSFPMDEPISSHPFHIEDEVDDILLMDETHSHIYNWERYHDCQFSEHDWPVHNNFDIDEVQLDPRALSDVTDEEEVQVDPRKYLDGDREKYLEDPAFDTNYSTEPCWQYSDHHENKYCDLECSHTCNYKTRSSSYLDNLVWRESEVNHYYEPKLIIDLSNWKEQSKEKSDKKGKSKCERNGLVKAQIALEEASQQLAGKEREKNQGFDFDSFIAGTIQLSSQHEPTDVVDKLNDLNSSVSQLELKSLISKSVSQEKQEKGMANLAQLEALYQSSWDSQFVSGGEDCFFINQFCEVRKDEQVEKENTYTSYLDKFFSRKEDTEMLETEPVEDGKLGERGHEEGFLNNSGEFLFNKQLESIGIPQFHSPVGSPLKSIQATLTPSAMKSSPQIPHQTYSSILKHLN

For `O=C(COc1cccc2c1C(=O)N(C1CCC(=O)NC1=O)C2=O)NCCCCCCCN1CCc2cc(Nc3ncc(C4CC4)c(NCCCNC(=O)C4CCC4)n3)ccc2C1` (centres unmarked) [BSJ.04.178], the logFC ([1]; experiment wp134) was −0.6546 and the “logFC of CDK10 (Q15131-1)” value ([1]; experiment wp134) was −0.6546.
For `CNC(=O)c1ccccc1Nc1cc(Nc2ccc(N3CCN(CCOCCOCCNC(=O)CNc4cccc5c4C(=O)N(C4CCC(=O)NC4=O)C5=O)CC3)cc2OC)ncc1C(F)(F)F` (centres unmarked) [MFH.5.103.1], the logFC ([1]; experiment wp076) was −0.6988 and the “logFC of CDK10 (Q15131-1)” value ([1]; experiment wp076) was −0.6988.
In the case of `CC(C)S(=O)(=O)c1ccccc1Nc1nc(Nc2ccc(N3CCN(CCOCCNC(=O)CNc4cccc5c4C(=O)N(C4CCC(=O)NC4=O)C5=O)CC3)cc2)ncc1Cl` (centres unmarked) [SK.3.91], the logFC ([1]; experiment wp133, 4 hr) is reported as −0.544, the “logFC of CDK10 (Q15131-1)” value ([1]; experiment wp133, 4 hr) is reported as −0.544 and the logFC ([2]; MAPK6 (Q16659), experiment wp133, 2 hr) is reported as −0.8253. For the same molecule, the logFC ([2]; MAPK6 (Q16659), experiment wp133, 2 hr, direction down) was −0.8253, the logFC ([2]; MAPK6 (Q16659), experiment wp133, 4 hr) was −1.614 and the logFC ([2]; MAPK6 (Q16659), experiment wp133, 4 hr, direction down) was −1.614. For the same molecule, the logFC ([2]; MAPK6 Q16659, experiment wp103) was −1.525, the “logFC MAPK6” value ([2]; MAPK6 Q16659, experiment wp103) was −1.525 and the logFC ([2]; MAPK6 Q16659, experiment wp107) was −1.345. The “logFC MAPK6” value ([2]; MAPK6 Q16659, experiment wp107) was −1.345, the logFC ([3]; experiment wp103) was −0.6497 and the logFC ([3]; experiment wp103, direction down) was −0.6497. For the same molecule, the logFC ([3]; experiment wp107) was −1.146, the logFC [3, 6] was −1.146 and the logFC ([4]; experiment wp016, 1 uM) was −0.6319. The “logFC RIOK2” value ([4]; experiment wp016, 1 uM) was −0.6319, the logFC ([4]; experiment wp103) was −0.8311 and the “logFC RIOK2” value ([4]; experiment wp103) was −0.8311. The logFC ([4]; experiment wp105) was −0.482, the “logFC RIOK2” value ([4]; experiment wp105) was −0.482 and the logFC ([4]; experiment wp107) was −0.7393. The “logFC RIOK2” value ([4]; experiment wp107) was −0.7393, the logFC ([4]; experiment wp133, 4 hr) was −0.6476 and the “logFC RIOK2” value ([4]; experiment wp133, 4 hr) was −0.6476. For the same molecule, the logFC ([4]; experiment wp160, 4 hr) was −0.4416 and the “logFC RIOK2” value ([4]; experiment wp160, 4 hr) was −0.4416.
`C[C@@H]1C[C@@H](O)c2ncnc(N3CCN(C(=O)[C@H](CNCCCCCCCCCCc4cccc5c4C(=O)N(C4CCC(=O)NC4=O)C5=O)c4ccc(Cl)cc4)CC3)c21` (some centres unmarked) [INY.03.041.01] was tested, and the logFC ([2]; MAPK6 (Q16659), experiment wp118) was −0.6183 and the “logFC MAPKG” value ([2]; MAPKG Q16659, experiment wp118) was −0.6183.
`Cc1cc(Nc2ncc(Br)c(Nc3cccc(F)c3C(N)=O)n2)ccc1S(=O)(=O)NCCOCCOCCOCCOCCNc1cccc2c1C(=O)N(C1CCC(=O)NC1=O)C2=O` (centres unmarked) [TMX.02.174] showed a logFC ([3]; experiment wp146) of −0.9362 and a logFC ([3]; experiment wp146, direction down) of −0.9362.
`Cc1ccc(NC(=O)c2cccc(C(F)(F)F)c2)cc1N1Cc2cnc(Nc3ccc(N4CCN(Cc5cn(CCCCCOc6cccc7c6C(=O)N(C6CCC(=O)NC6=O)C7=O)nn5)CC4)nc3)nc2N(C)C1=O` (centres unmarked) [DB0646, N-(3-(7-((6-(4-((1-(5-((2-(2,6-Dioxopiperidin-3-yl)-1,3-dioxoisoindolin-4-yl)oxy)pentyl)-1H-1,2,3-triazol-4-yl)methyl)piperazin-1-v)pyridin-3-yl)amino)-1-methyl-2-oxo-1,4-dihydropyrimido[4,5-d]pyrimidin-3(2H)-yl)-4-methylphenyl)-3-(trifluoromethyl)benzamide] was tested, and the “logFC EPHA3” value ([5]; Accession P29320, experiment wp045, direction down) was −0.5333, the “logFC EPHA3” value ([5]; Accession P29320, experiment wp103, direction down) was −0.3715 and the “logFC EPHA3” value ([5]; Accession P29320, experiment wp107, direction down) was −0.4346. For the same molecule, the “logFC EPHA3” value ([5]; Accession P29320, experiment wp117, direction down) was −0.3587, the “logFC EPHA3” value ([5]; Accession P29320, experiment wp152, direction down) was −0.3871 and the “logFC EPHA3” value ([5]; Accession P29320, experiment wp160, 4 hr, direction down) was −0.5814. For the same molecule, the “logFC EPHA3” value ([5]; Accession P29320, experiment wp160, 8 hr, direction down) was −0.5528, the “logFC EPHA3” value ([5]; EPHA3 (P29320), experiment wp045) was −0.5333 and the “logFC EPHA3” value ([5]; EPHA3 (P29320), experiment wp103) was −0.3715. For the same molecule, the “logFC EPHA3” value ([5]; EPHA3 (P29320), experiment wp107) was −0.4346, the “logFC EPHA3” value ([5]; EPHA3 (P29320), experiment wp117) was −0.3587 and the “logFC EPHA3” value ([5]; EPHA3 (P29320), experiment wp152) was −0.3871. For the same molecule, the “logFC EPHA3” value ([5]; EPHA3 (P29320), experiment wp160, 4 hr) was −0.5814, the “logFC EPHA3” value ([5]; EPHA3 (P29320), experiment wp160, 8 hr) was −0.5528 and the logFC ([3]; experiment wp107) was −0.8282. The logFC [3, 6] was −0.8282.
For `Cc1ccc(NC(=O)c2cccc(C(F)(F)F)c2)cc1N1Cc2cnc(Nc3ccc(N4CCN(CCCCC(=O)N[C@H](C(=O)N5C[C@H](O)C[C@H]5C(=O)N[C@@H](C)c5ccc(-c6scnc6C)cc5)C(C)(C)C)CC4)nc3)nc2N(C)C1=O` [DB1113], the “logFC EPHA3” value ([5]; Accession P29320, experiment wp168, direction down) was −0.4182 and the “logFC EPHA3” value ([5]; EPHA3 (P29320), experiment wp168) was −0.4182.
For `CCc1cnn2c(N(Cc3ccc(N)nc3)C(=O)CCOCCOCCOCCNC(=O)CNc3cccc4c3C(=O)N(C3CCC(=O)NC3=O)C4=O)cc(N3CCCC[C@H]3CCO)nc12` (some centres unmarked) [MFH.5.115.2], the logFC ([4]; experiment wp076) was −0.8067 and the “logFC RIOK2” value ([4]; experiment wp076) was −0.8067.
Molecule `CC(C)S(=O)(=O)c1ccccc1Nc1nc(Nc2ccc(N3CCN(CCOCCOCCC(=O)NCCNc4cccc5c4CN(C4CCC(=O)NC4=O)C5=O)CC3)cc2)ncc1Cl` (centres unmarked) [TL13.97] has a logFC ([3]; experiment wp137) of −1.712 and a logFC ([3]; experiment wp137, direction down) of −1.712.
`Cn1c(=O)c(-c2c(Cl)cccc2Cl)cc2cnc(Nc3ccc(OCCNC(=O)CCCCCCNC(=O)COc4cccc5c4C(=O)N(C4CCC(=O)NC4=O)C5=O)cc3)nc21` (centres unmarked) [SB1.G.192.1] was tested, and the “logFC EPHA3” value ([5]; Accession P29320, experiment wp071, direction down) was −1.175, the “logFC EPHA3” value ([5]; Accession P29320, experiment wp081, direction down) was −1.027 and the “logFC EPHA3” value ([5]; Accession P29320, experiment wp131, direction down) was −1.318. For the same molecule, the “logFC EPHA3” value ([5]; EPHA3 (P29320), experiment wp071) was −1.175, the “logFC EPHA3” value ([5]; EPHA3 (P29320), experiment wp081) was −1.027 and the “logFC EPHA3” value ([5]; EPHA3 (P29320), experiment wp131) was −1.318.
`Cc1ncsc1-c1ccc([C@H](C)NC(=O)[C@@H]2C[C@@H](O)CN2C(=O)[C@@H](NC(=O)CCOCCOCCN2CCN(c3ccc(Nc4ncc(Cl)c(Nc5ccccc5S(=O)(=O)C(C)C)n4)cc3)CC2)C(C)(C)C)cc1` [FMF.06.098.1] was tested, and the logFC [2, 7] was −0.4123 and the “logFC MAPK6” value [2, 7] was −0.4123.
With `Cc1ncsc1-c1ccc([C@H](C)NC(=O)[C@@H]2C[C@@H](O)CN2C(=O)[C@@H](NC(=O)CCCCCN2CCN(c3ccc(Nc4ncc5scc(-c6cccc(NS(C)(=O)=O)c6)c5n4)cc3)CC2)C(C)(C)C)cc1` [RSS0680, (2S,4R)-1-((S)-3,3-Dimethyl-2-(6-(4-(4-((7-(3-(methylsulfonamido)phenyl)thieno[3,2-d]pyrimidin-2-yl)amino)phenyl)piperazin-1-yl)hexanamido)butanoyl)-4-hydroxy-N—((S)-1-(4-(4-methylthiazol-5yl)phenyl)ethyl)pyrrolidine-2-carboxamide] the logFC ([2]; MAPK6 Q16659, experiment wp080) was −0.5033 and the “logFC MAPK6” value ([2]; MAPK6 Q16659, experiment wp080) was −0.5033.
With `O=C1CCC(N2C(=O)c3cccc(NCCCCCCCCN4CCC(NC(=O)c5[nH]ncc5NC(=O)c5c(Cl)cccc5Cl)CC4)c3C2=O)C(=O)N1` (centres unmarked) [MFH.5.126.1] the logFC ([4]; experiment wp076) was −0.7874 and the “logFC RIOK2” value ([4]; experiment wp076) was −0.7874.
